Consider two molecules from paper PMC8274818 (Bioorganic & medicinal chemistry, 2019).

The structures appear in SMILES notation. Values after ≈ are worked out from the molar mass of the structure shown.

The data set can be described thus: Kinetic solubility assay. Format: physicochemical. The note with it: phosphate buffer, pH 7.4, aqueous buffer, kinetic from dmso stock.

What is called kinetic solubility is solubility judged after dilution from a stock solution rather than from solid. `CCCSc1ccc2nc(NC(=O)OC)[nH]c2c1` [Albendazole, albendazole] displayed a solubility (kinetic) at 6 h below 1 µg/mL. Then `Nc1ccc(/N=N/c2ccccc2)c(N)n1` [phenazolpyridine], with 27.7 ± 4.49 µg/mL (≈ 130 µM).
